Laboratory results published in PMC9067983, “Identification of highly selective type II kinase inhibitors with chiral peptidomimetic tails” (Journal of Enzyme Inhibition and Medicinal Chemistry, 2022).
Where a SMILES comes first, the peptide text is derived from it. [ ]: non-standard residue; d: D form. The star is where a group is joined. X1 = Cc1ccc(Nc2ncc3c(n2)N(C)C(=O)N(c2cc(C(=O)*)ccc2C)C3)cn1; Aib = CC(C)(N)C(=O)O

Legend:
Experiment in all cases: kinase selectivity profiling
Assay type in all cases: biochemical
Settings in all cases: 10µM ATP, read-out: % inhibition (relative to DMSO)
[1] = biological target: T1, PIM2 (Homo sapiens, UniProt Q9P1W9)
T1 construct: purchased Reaction Biology Corp
T1 sequence (Q9P1W9 whole entry): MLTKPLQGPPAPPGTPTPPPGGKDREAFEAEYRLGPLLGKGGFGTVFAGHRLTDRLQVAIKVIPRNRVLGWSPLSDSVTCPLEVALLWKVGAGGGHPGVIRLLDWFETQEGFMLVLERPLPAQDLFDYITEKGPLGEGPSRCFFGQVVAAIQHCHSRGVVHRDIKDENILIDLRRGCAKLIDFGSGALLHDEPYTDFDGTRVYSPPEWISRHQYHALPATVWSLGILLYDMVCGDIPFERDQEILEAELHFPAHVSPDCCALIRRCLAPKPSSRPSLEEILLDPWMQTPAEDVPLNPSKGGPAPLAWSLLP
Protocol: (§1) Full panel kinase profiling and kinase IC50 measurement were performed by using Reaction Biology Corp. (San Diego, USA).

[2] = biological target: T2, MLK3/MAP3K11 (Homo sapiens, UniProt Q16584)
T2 construct: purchased Reaction Biology Corp
Protocol: as §1

[3] = biological target: T3, MYLK4 (Homo sapiens, UniProt Q86YV6)
T3 construct: purchased Reaction Biology Corp
Protocol: as §1

[4] = biological target: T4, BMX/ETK (Homo sapiens, UniProt P51813)
T4 construct: purchased Reaction Biology Corp
Protocol: as §1

[5] = biological target: T5, DMPK2 (Homo sapiens, UniProt Q6DT37)
T5 construct: purchased Reaction Biology Corp
Protocol: as §1

[6] = biological target: T6, DDR1 (Homo sapiens, UniProt Q08345)
T6 construct: purchased Reaction Biology Corp
Protocol: as §1

[7] = biological target: T7, PKAcb (Homo sapiens, UniProt P22694)
T7 construct: purchased Reaction Biology Corp
Protocol: as §1

[8] = biological target: T8, TAOK1 (Homo sapiens, UniProt Q7L7X3)
T8 construct: purchased Reaction Biology Corp
Protocol: as §1

[9] = biological target: T9, EPHB1 (Homo sapiens, UniProt P54762)
T9 construct: purchased Reaction Biology Corp
T9 sequence (P54762 18-984): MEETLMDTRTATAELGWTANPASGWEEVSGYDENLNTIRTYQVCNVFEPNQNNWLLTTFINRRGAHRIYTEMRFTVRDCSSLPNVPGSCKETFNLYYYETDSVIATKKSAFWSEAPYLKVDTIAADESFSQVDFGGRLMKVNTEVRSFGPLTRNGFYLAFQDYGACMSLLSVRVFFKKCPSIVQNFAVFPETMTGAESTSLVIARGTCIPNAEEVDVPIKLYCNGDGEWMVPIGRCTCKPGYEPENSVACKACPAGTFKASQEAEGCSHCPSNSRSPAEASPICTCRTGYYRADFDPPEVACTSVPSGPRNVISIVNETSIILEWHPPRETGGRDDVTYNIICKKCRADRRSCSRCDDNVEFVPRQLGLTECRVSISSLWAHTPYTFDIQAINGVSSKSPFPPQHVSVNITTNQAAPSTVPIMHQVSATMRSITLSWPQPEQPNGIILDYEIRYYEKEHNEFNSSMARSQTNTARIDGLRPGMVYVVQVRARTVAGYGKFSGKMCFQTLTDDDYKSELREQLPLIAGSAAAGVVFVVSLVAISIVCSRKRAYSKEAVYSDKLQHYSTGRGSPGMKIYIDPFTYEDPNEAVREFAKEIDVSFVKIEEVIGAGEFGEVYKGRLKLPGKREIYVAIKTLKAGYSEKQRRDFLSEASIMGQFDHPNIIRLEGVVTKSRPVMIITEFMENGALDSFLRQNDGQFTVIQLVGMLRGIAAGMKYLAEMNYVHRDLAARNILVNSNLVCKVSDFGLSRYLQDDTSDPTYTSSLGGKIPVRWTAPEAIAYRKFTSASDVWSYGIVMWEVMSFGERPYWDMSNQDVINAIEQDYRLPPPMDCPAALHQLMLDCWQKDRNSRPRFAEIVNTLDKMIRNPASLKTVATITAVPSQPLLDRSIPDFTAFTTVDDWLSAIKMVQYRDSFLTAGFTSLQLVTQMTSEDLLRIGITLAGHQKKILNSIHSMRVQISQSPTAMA
Protocol: as §1

[10] = biological target: T10, LRRK2 (Homo sapiens, UniProt Q5S007)
T10 construct: purchased Reaction Biology Corp
Protocol: as §1

[11] = biological target: T11, Lck (Homo sapiens, UniProt P06239)
T11 construct: purchased Reaction Biology Corp
Protocol: as §1

[12] = biological target: T12, PAK5 (Homo sapiens, UniProt Q9P286)
T12 construct: purchased Reaction Biology Corp
Protocol: as §1

[13] = biological target: T13, ULK3 (Homo sapiens, UniProt Q6PHR2)
T13 construct: purchased Reaction Biology Corp
Protocol: as §1

[14] = biological target: T14, Blk (Homo sapiens, UniProt P51451)
T14 construct: purchased Reaction Biology Corp
Protocol: as §1

[15] = biological target: T15, CDK2/cyclin E (Homo sapiens, UniProt P24941)
T15 construct: purchased Reaction Biology Corp
Protocol: as §1

[16] = biological target: T16, ROS/ROS1 (Homo sapiens, UniProt P08922)
T16 construct: purchased Reaction Biology Corp
Protocol: as §1

[17] = biological target: T17, PKA (Homo sapiens, UniProt P17612)
T17 construct: purchased Reaction Biology Corp
Protocol: as §1

[18] = biological target: T18, WNK1 (Homo sapiens, UniProt Q9H4A3)
T18 construct: purchased Reaction Biology Corp
Protocol: as §1

[19] = biological target: T19, MNK1 (Homo sapiens, UniProt Q9BUB5)
T19 construct: purchased Reaction Biology Corp
Protocol: as §1

[20] = biological target: T20, STK33 (Homo sapiens, UniProt Q9BYT3)
T20 construct: purchased Reaction Biology Corp
Protocol: as §1

[21] = biological target: T21, GRK6 (Homo sapiens, UniProt P43250)
T21 construct: purchased Reaction Biology Corp
Protocol: as §1

[22] = biological target: T22, CDK3/cyclin E2 (Homo sapiens, UniProt Q00526)
T22 construct: purchased Reaction Biology Corp
Protocol: as §1

[23] = biological target: T23, FAK/PTK2 (Homo sapiens, UniProt Q05397)
T23 construct: purchased Reaction Biology Corp
Protocol: as §1

[24] = biological target: T24, CDK2/Cyclin A1 (Homo sapiens, UniProt P24941)
T24 construct: purchased Reaction Biology Corp
Protocol: as §1

[25] = biological target: T25, TSSK3/STK22C (Homo sapiens, UniProt Q96PN8)
T25 construct: purchased Reaction Biology Corp
T25 sequence (Q96PN8 whole entry): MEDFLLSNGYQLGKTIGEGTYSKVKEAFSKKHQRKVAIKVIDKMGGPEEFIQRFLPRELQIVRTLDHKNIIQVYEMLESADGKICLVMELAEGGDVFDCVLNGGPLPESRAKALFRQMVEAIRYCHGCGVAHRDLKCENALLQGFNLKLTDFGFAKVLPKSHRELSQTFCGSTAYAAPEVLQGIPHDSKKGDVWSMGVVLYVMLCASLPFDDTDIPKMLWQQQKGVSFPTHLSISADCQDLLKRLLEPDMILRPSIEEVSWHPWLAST
Protocol: as §1

[26] = biological target: T26, MELK (Homo sapiens, UniProt Q14680)
T26 construct: purchased Reaction Biology Corp
Protocol: as §1

[27] = biological target: T27, EPHA3 (Homo sapiens, UniProt P29320)
T27 construct: purchased Reaction Biology Corp
Protocol: as §1

[28] = biological target: T28, IR (Homo sapiens, UniProt P06213)
T28 construct: purchased Reaction Biology Corp
Protocol: as §1

[29] = biological target: T29, YES/YES1 (Homo sapiens, UniProt P07947)
T29 construct: purchased Reaction Biology Corp
T29 sequence (P07947 whole entry): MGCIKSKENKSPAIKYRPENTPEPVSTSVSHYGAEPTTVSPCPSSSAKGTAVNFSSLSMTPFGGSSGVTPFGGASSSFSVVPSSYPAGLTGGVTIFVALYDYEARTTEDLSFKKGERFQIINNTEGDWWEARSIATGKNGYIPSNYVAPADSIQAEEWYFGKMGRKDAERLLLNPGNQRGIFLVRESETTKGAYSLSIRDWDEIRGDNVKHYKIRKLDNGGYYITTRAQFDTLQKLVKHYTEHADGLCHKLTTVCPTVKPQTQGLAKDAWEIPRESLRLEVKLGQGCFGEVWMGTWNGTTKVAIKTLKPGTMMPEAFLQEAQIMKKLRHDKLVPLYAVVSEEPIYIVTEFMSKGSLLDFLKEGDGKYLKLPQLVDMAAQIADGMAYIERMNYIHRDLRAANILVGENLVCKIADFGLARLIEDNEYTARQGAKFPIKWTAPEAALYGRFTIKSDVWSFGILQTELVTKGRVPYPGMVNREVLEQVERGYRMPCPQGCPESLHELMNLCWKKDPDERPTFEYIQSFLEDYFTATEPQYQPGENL
Protocol: as §1

[30] = biological target: T30, CK1g1 (Homo sapiens, UniProt Q9HCP0)
T30 construct: purchased Reaction Biology Corp
Protocol: as §1

[31] = biological target: T31, MAPKAPK3 (Homo sapiens, UniProt Q16644)
T31 construct: purchased Reaction Biology Corp
Protocol: as §1

[32] = biological target: T32, ERBB2/HER2 (Homo sapiens, UniProt P04626)
T32 construct: purchased Reaction Biology Corp
T32 sequence (P04626 23-1255): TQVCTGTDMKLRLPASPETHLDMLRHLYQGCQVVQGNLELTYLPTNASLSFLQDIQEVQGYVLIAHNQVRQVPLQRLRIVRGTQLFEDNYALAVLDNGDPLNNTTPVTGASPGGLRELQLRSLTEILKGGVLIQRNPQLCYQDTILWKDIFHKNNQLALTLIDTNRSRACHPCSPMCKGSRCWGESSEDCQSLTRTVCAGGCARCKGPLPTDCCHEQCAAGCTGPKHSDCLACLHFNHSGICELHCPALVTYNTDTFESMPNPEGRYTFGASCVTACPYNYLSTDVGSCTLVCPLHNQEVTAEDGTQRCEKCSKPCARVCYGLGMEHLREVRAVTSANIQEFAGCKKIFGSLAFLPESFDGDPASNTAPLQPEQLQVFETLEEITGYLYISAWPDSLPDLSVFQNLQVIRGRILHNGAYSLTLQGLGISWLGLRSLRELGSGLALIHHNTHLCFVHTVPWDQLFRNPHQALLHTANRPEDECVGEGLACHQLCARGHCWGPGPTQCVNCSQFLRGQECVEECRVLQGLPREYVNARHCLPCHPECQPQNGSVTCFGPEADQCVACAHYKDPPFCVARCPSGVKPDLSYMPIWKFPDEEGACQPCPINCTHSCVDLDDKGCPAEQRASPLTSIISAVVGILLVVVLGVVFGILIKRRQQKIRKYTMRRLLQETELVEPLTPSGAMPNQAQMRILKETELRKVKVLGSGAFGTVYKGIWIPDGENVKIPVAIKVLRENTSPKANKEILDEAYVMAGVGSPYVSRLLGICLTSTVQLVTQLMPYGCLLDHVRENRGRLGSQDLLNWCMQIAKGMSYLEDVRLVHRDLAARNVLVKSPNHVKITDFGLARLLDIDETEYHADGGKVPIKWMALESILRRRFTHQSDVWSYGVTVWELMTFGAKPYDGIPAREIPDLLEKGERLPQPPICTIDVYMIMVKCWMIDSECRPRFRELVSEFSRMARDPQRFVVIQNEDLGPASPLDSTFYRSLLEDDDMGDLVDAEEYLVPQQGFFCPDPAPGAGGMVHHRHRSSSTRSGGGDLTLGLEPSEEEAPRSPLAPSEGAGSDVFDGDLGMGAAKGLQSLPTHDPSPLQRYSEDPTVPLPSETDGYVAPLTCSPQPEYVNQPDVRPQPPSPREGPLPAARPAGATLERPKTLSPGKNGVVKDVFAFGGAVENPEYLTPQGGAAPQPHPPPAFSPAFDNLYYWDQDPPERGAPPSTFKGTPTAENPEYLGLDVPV
Protocol: as §1

[33] = biological target: T33, ALK3/BMPR1A (Homo sapiens, UniProt P36894)
T33 construct: purchased Reaction Biology Corp
T33 sequence (P36894 24-532): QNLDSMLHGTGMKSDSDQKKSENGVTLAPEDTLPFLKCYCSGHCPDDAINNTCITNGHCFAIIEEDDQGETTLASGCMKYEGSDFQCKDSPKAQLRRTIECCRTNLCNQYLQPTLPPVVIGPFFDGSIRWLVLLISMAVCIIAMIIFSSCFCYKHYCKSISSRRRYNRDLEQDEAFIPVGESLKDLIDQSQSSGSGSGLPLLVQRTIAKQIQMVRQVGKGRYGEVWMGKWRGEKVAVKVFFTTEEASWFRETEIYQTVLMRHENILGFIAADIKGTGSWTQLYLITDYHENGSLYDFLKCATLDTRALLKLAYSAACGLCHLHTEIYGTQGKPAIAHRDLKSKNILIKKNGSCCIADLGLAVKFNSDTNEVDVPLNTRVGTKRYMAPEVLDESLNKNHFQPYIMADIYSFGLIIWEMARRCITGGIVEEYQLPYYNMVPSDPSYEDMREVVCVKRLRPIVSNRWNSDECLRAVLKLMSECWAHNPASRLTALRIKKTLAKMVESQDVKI
Protocol: as §1

[34] = biological target: T34, PKCnu/PRKD3 (Homo sapiens, UniProt O94806)
T34 construct: purchased Reaction Biology Corp
Protocol: as §1

[35] = biological target: T35, HGK/MAP4K4 (Homo sapiens, UniProt O95819)
T35 construct: purchased Reaction Biology Corp
Protocol: as §1

[36] = biological target: T36, CDK5/P25 (Homo sapiens, UniProt Q00535)
T36 construct: purchased Reaction Biology Corp
Protocol: as §1

[37] = biological target: T37, Haspin (Homo sapiens, UniProt Q8TF76)
T37 construct: purchased Reaction Biology Corp
T37 sequence (Q8TF76 whole entry): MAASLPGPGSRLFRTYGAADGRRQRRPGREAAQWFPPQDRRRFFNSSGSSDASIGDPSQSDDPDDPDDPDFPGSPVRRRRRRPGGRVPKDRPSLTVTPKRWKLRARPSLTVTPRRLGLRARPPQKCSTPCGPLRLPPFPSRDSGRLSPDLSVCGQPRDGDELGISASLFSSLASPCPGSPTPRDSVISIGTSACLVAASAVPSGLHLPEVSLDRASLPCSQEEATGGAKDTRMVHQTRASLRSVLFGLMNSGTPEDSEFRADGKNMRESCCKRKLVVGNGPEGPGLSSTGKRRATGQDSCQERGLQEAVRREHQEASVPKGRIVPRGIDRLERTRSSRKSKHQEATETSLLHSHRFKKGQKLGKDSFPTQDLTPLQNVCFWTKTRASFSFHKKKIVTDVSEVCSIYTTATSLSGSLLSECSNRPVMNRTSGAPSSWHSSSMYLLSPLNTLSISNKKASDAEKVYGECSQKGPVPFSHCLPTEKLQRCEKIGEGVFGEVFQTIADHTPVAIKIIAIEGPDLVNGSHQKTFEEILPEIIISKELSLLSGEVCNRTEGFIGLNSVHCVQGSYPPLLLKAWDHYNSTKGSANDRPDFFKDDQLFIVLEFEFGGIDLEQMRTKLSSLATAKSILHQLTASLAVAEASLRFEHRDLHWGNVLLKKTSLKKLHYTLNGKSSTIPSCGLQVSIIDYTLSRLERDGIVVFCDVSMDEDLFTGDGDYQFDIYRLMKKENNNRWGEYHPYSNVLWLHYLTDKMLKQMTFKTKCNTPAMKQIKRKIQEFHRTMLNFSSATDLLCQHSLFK
Protocol: as §1

[38] = biological target: T38, EPHA6 (Homo sapiens, UniProt Q9UF33)
T38 construct: purchased Reaction Biology Corp
Protocol: as §1

[39] = biological target: T39, CLK4 (Homo sapiens, UniProt Q9HAZ1)
T39 construct: purchased Reaction Biology Corp
Protocol: as §1

[40] = biological target: T40, Aurora B (Homo sapiens, UniProt Q96GD4)
T40 construct: purchased Reaction Biology Corp
Protocol: as §1

[41] = biological target: T41, CAMK1d (Homo sapiens, UniProt Q8IU85)
T41 construct: purchased Reaction Biology Corp
Protocol: as §1

[42] = biological target: T42, P38g (Homo sapiens, UniProt P53778)
T42 construct: purchased Reaction Biology Corp
T42 sequence (P53778 whole entry): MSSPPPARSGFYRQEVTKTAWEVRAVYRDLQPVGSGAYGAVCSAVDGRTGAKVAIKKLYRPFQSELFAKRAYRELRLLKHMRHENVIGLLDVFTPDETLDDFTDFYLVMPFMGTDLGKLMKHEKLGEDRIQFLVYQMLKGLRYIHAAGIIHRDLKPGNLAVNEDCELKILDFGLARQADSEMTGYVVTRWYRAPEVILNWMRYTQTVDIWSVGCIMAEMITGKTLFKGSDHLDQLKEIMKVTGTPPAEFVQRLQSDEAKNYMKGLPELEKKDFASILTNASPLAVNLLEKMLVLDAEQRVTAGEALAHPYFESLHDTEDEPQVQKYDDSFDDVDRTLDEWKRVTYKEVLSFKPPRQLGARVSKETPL
Protocol: as §1

[43] = biological target: T43, PIM3 (Homo sapiens, UniProt Q86V86)
T43 construct: purchased Reaction Biology Corp
Protocol: as §1

SMILES: Cc1ccc(Nc2ncc3c(n2)N(C)C(=O)N(c2cc(C(=O)N[C@H](C(=O)N4CCC[C@H]4C(=O)NC(C)(C)C(=O)N[C@@H](CC(C)C)C(=O)N(C)C)C(C)C)ccc2C)C3)cn1 [7a, (S)-N-(1-(((S)-1-(dimethylamino)-4-methyl-1-oxopentan-2-yl)amino)-2-methyl-1-oxopropan-2-yl)-1-((4-methyl-3-(1-methyl-7-((6-methylpyridin-3-yl)amino)-2-oxo-1,4-dihydropyrimido[4,5-d]pyrimidin-3(2H)-yl)benzoyl)-L-valyl)pyrrolidine-2-carboxamide] (X1-VP[Aib]L-NMe2)
- inhibition at 1 µM [1]: 0%
- inhibition at 1 µM [2]: 34%
- inhibition at 1 µM [3]: 8%
- inhibition at 1 µM [4]: 73%
- inhibition at 1 µM [5]: 0%
- inhibition at 1 µM [6]: 80%
- inhibition at 1 µM [7]: 3%
- inhibition at 1 µM [8]: 0%
- inhibition at 1 µM [9]: 16%
- inhibition at 1 µM [10]: 0%
- inhibition at 1 µM [11]: 94%
- inhibition at 1 µM [12]: 9%
- inhibition at 1 µM [13]: 0%
- inhibition at 1 µM [14]: 73%
- inhibition at 1 µM [15]: 0%
- inhibition at 1 µM [16]: 9%
- inhibition at 1 µM [17]: 6%
- inhibition at 1 µM [18]: 0%
- inhibition at 1 µM [19]: 8%
- inhibition at 1 µM [20]: 0%
- inhibition at 1 µM [21]: 4%
- inhibition at 1 µM [22]: 0%
- inhibition at 1 µM [23]: 5%
- inhibition at 1 µM [24]: 1%
- inhibition at 1 µM [25]: 3%
- inhibition at 1 µM [26]: 4%
- inhibition at 1 µM [27]: 25%
- inhibition at 1 µM [28]: 0%
- inhibition at 1 µM [29]: 62%
- inhibition at 1 µM [30]: 0%
- inhibition at 1 µM [31]: 2%
- inhibition at 1 µM [32]: 10%
- inhibition at 1 µM [33]: 3%
- inhibition at 1 µM [34]: 0%
- inhibition at 1 µM [35]: 0%
- inhibition at 1 µM [36]: 0%
- inhibition at 1 µM [37]: 1%
- inhibition at 1 µM [38]: 5%
- inhibition at 1 µM [39]: 0%
- inhibition at 1 µM [40]: 6%
- inhibition at 1 µM [41]: 8%
- inhibition at 1 µM [42]: 4%
- inhibition at 1 µM [43]: 0%
